Data taken from the NIST ThermoML archive (doi:10.1016/j.jct.2016.03.026).

Assay: xn = mol fraction of the nth substance listed
Conditions: 293.15 K, Fluid (supercritical or subcritical phases), Vibrating tube method, x1 = 0.97

O=C=O [carbon dioxide] + CO
Conditions	mass density [kg/m3]
8600 kPa	847.4
8625 kPa	847.69
8650 kPa	848.04
8675 kPa	848.37
8700 kPa	848.68
8725 kPa	849.03
8750 kPa	849.37
8775 kPa	849.67
8800 kPa	849.99
8825 kPa	850.29
8850 kPa	850.6
8875 kPa	850.92
8900 kPa	851.22
8925 kPa	851.5
8950 kPa	851.81
8975 kPa	852.08
9000 kPa	852.41
9025 kPa	852.71
9050 kPa	852.98
9075 kPa	853.28
9100 kPa	853.57
9125 kPa	853.85
9150 kPa	854.08
9175 kPa	854.24
9200 kPa	854.32
9225 kPa	854.58
9250 kPa	854.9
9275 kPa	855.22
9300 kPa	855.55
9325 kPa	855.89
9350 kPa	856.22
9375 kPa	856.46
9400 kPa	856.82
9425 kPa	857.09
9450 kPa	857.44
9475 kPa	857.69
9500 kPa	858.02
9525 kPa	858.28
9550 kPa	858.59
9575 kPa	858.84
9600 kPa	859.17
9625 kPa	859.48
9650 kPa	859.74
9675 kPa	860.01
9700 kPa	860.28
9725 kPa	860.54
9750 kPa	860.76
9775 kPa	860.99
9800 kPa	861.24
9825 kPa	861.54
9850 kPa	861.78
9875 kPa	862
9900 kPa	862.27
9925 kPa	862.54
9950 kPa	862.76
9975 kPa	863.01
10000 kPa	863.3
10025 kPa	863.5
10050 kPa	863.76
10075 kPa	864
10100 kPa	864.22
10125 kPa	864.49
10150 kPa	864.74
10175 kPa	865.06
10200 kPa	865.34
10225 kPa	865.63
10250 kPa	865.87
10275 kPa	866.12
10300 kPa	866.45
10325 kPa	866.67
10350 kPa	866.94
10375 kPa	867.18
10400 kPa	867.43
10425 kPa	867.68
10450 kPa	867.99
10475 kPa	868.24
10500 kPa	868.43
10525 kPa	868.74
10550 kPa	868.99
10575 kPa	869.23
10600 kPa	869.48
10625 kPa	869.76
10650 kPa	869.97
10675 kPa	870.3
10700 kPa	870.54
10725 kPa	870.79
10750 kPa	871.03
10775 kPa	871.28
10800 kPa	871.52
10825 kPa	871.77
10850 kPa	872.01
10875 kPa	872.27
10900 kPa	872.51
10925 kPa	872.75
10950 kPa	873
10975 kPa	873.24
11000 kPa	873.49
11025 kPa	873.73
11050 kPa	873.98
11075 kPa	874.22
11100 kPa	874.47
11125 kPa	874.72
11150 kPa	874.96
11175 kPa	875.21
11200 kPa	875.45
11225 kPa	875.7
11250 kPa	875.94
11275 kPa	876.2
11300 kPa	876.43
11325 kPa	876.68
11350 kPa	876.93
11375 kPa	877.16
11400 kPa	877.38
11425 kPa	877.58
11450 kPa	877.85
11475 kPa	878.07
11500 kPa	878.33
11525 kPa	878.56
11550 kPa	878.81
11575 kPa	879
11600 kPa	879.3
11625 kPa	879.46
11650 kPa	879.71
11675 kPa	879.95
11700 kPa	880.2
11725 kPa	880.38
11750 kPa	880.63
11775 kPa	880.86
11800 kPa	881.1
11825 kPa	881.34
11850 kPa	881.54
11875 kPa	881.77
11900 kPa	882
11925 kPa	882.25
11950 kPa	882.46
11975 kPa	882.66
12000 kPa	882.9
12025 kPa	883.12
12050 kPa	883.38
12075 kPa	883.57
12100 kPa	883.79
12125 kPa	884.05
12150 kPa	884.26
12175 kPa	884.46
12200 kPa	884.7
12225 kPa	884.95
12250 kPa	885.18
12275 kPa	885.36
12300 kPa	885.6
12325 kPa	885.85
12350 kPa	886.09
12375 kPa	886.26
12400 kPa	886.49
12425 kPa	886.67
12450 kPa	886.91
12475 kPa	887.16
12500 kPa	887.33
12525 kPa	887.57
12550 kPa	887.8
12575 kPa	887.98
12600 kPa	888.22
12625 kPa	888.41
12650 kPa	888.63
12675 kPa	888.88
12700 kPa	889.11
12725 kPa	889.29
12750 kPa	889.53
12775 kPa	889.77
12800 kPa	889.94
12825 kPa	890.19
12850 kPa	890.37
12875 kPa	890.6
12900 kPa	890.84
12925 kPa	891.01
12950 kPa	891.25
12975 kPa	891.46
13000 kPa	891.66
13025 kPa	891.9
13050 kPa	892.08
13075 kPa	892.32
13100 kPa	892.5
13125 kPa	892.74
13150 kPa	892.96
13175 kPa	893.13
13200 kPa	893.3
13225 kPa	893.53
13250 kPa	893.74
13275 kPa	893.95
13300 kPa	894.19
13325 kPa	894.36
13350 kPa	894.53
13375 kPa	894.75
13400 kPa	894.97
13425 kPa	895.18
13450 kPa	895.34
13475 kPa	895.52
13500 kPa	895.75
13525 kPa	895.96
13550 kPa	896.13
13575 kPa	896.33
13600 kPa	896.51
13625 kPa	896.67
13650 kPa	896.86
13675 kPa	897.09
13700 kPa	897.29
13725 kPa	897.47
13750 kPa	897.68
13775 kPa	897.85
13800 kPa	898.05
13825 kPa	898.26
13850 kPa	898.41
13875 kPa	898.62
13900 kPa	898.8
13925 kPa	898.97
13950 kPa	899.2
13975 kPa	899.38
14000 kPa	899.55
14025 kPa	899.76
14050 kPa	899.94
14075 kPa	900.17
14100 kPa	900.34
14125 kPa	900.51
14150 kPa	900.7
14175 kPa	900.95
14200 kPa	901.13
14225 kPa	901.31
14250 kPa	901.48
14275 kPa	901.66
14300 kPa	901.83
14325 kPa	902.05
14350 kPa	902.18
14375 kPa	902.38
14400 kPa	902.56
14425 kPa	902.77
14450 kPa	902.92
14475 kPa	903.13
14500 kPa	903.28
14525 kPa	903.44
14550 kPa	903.67
14575 kPa	903.82
14600 kPa	904.05
14625 kPa	904.2
14650 kPa	904.42
14675 kPa	904.58
